Results on 19 molecules are retold here after publication PMC8015227, “Understanding the Metabolism of Proteolysis Targeting Chimeras (PROTACs): The Next Step toward Pharmaceutical Applications” (Journal of Medicinal Chemistry, 2020).

Where two headings read alike, the source gives them in different places. Where only a bound is given, the exact number is not on record here.

Data set [1] is described as follows: Metabolic stability in cryopreserved human hepatocytes. Type of data set: in vitro ADME. To be noted: human.
Method: (§1) Cryopreserved human hepatocytes (pooled suspension hepatocytes, Gibco) were thawed placing in a 37 °C shaking water bath according to the manufacturer’s specifications and resuspended in Williams E medium (WEM) to have 1 × 10^6 cells/mL. Samples with the test compound at 1 μM were incubated at 37 °C, and aliquots of 50 μL were collected at 0, 10, 30, 60, 120, and 240 min. The incubations were quenched 1:3 with ice-cold acetonitrile (containing 1 μM labetalol as the internal standard). Samples were then centrifuged at 12000 rpm for 5 min at 4 °C. The supernatant was concentrated by evaporation under a nitrogen stream and reconstituted with DMSO. Blank was prepared similarly but in the absence of the investigated compounds.
(§2) A Thermo Q-exactive mass spectrometer (Thermo Fisher Scientific, Waltham, MA) was used. The LC system, governed by Chromeleon X-press software, consists of a Binary pump, a thermostated autosampler, and a column compartment, all Dionex Ultimate 3000 series modules (Thermo Fisher Scientific, Waltham, MA). A volume of 2 μL was injected for each sample. Chromatographic separation of analytes was conducted in reverse-phase chromatography. In brief, a Luna Omega 1.6 μm Polar (C18, 2.1 mm × 150 mm) was used, and the mobile phases consisted of water (A) and acetonitrile (B), both containing formic acid at 0.1%. The LC flow was set at 0.400 mL/min in a 12 min gradient elution as follows: 99.5:0.5 (A/B) to 5:95 (A/B) over 10 min, 5:95 (A/B) for 2 min, and then reversion back to 99.5:0.5 (A/B) over 2.5 min. The column was operating at a constant temperature of 40 °C.
Data set [2] concerns cryopreserved human hepatocytes. The data set is described as above. Type of data set: in vitro ADME. To be noted: for substrate left: cryopreserved human hepatocytes, end of incubation (240 min).
Method: as §1, §2
Where [3] appears, read: cryopreserved human hepatocytes (pooled, suspension), Table 1, incubation in cryopreserved human hepatocytes, 1 μM, up to 240 min, read-out: t1/2.
The mark [4] stands for this setting: cryopreserved human hepatocytes (pooled, suspension), Table S1, PROTACs, cryopreserved human hepatocytes, read-out: t1/2.
The mark [5] stands for this setting: cryopreserved human hepatocytes (pooled, suspension), supplement CSV, human hepatocytes, read-out: HLH t1/2.
The mark [6] stands for this setting: Table 1, biotransformations observed in cryopreserved human hepatocytes.
Where [7] appears, read: cryopreserved human hepatocytes (pooled, suspension), Figures 3-5, cryopreserved human hepatocytes, read-out: half-life (t1/2).
Where [8] appears, read: supplement CSV, in brackets, final time point 240 min.
[9] abbreviates: cryopreserved human hepatocytes (pooled, suspension), Table 2, cryopreserved human hepatocytes, read-out: t1/2.
[10] abbreviates: Table 2, biotransformations observed in cryopreserved human hepatocytes.
Where [11] appears, read: cryopreserved human hepatocytes (pooled, suspension), Table S2, free ligands, cryopreserved human hepatocytes, read-out: t1/2.

As for `Cc1sc2c(c1C)C(c1ccc(Cl)cc1)=N[C@@H](CC(=O)NCCCCCCCCNc1cccc3c1C(=O)N(C1CCC(=O)NC1=O)C3=O)c1nnc(C)n1-2` (stereo partly drawn) [Compound 4, 2-((S)-4-(4-Chlorophenyl)-2,3,9-trimethyl-6H-thieno[3,2-f][1,2,4]triazolo[4,3-a][1,4]diazepin-6-yl)-N-(8-((2-(2,6-dioxopiperidin-3-yl)-1,3-dioxoisoindolin-4-yl)amino)octyl)acetamide], the half-life at 1 µM in data set [1] (setting [3]), in data set [1] (setting [4]) and in data set [1] (setting [5]) was 55.1 min each time. In addition, the “Reaction (soft spots)” value in data set [2] (setting [6]) is “a. N-dealkylation (x2) b. Aliphatic-hydroxylation c. Dehydrogenation*”.
Regarding `Cc1ncsc1-c1ccc([C@H](C)NC(=O)[C@@H]2C[C@@H](O)CN2C(=O)[C@@H](NC(=O)CCN2CCN(C(=O)C[C@@H]3N=C(c4ccc(Cl)cc4)c4c(sc(C)c4C)-n4c(C)nnc43)CC2)C(C)(C)C)cc1` [Compound 11, (2S,4R)-1-((S)-2-(3-(4-(2-((S)-4-(4-Chlorophenyl)-2,3,9-trimethyl-6H-thieno[3,2-f][1,2,4]triazolo[4,3-a][1,4]diazepin-6-yl)acetyl)piperazin-1-yl)propanamido)-3,3-dimethylbutanoyl)-4-hydroxy-N-((S)-1-(4-(4-methylthiazol-5-yl)phenyl)ethyl)pyrrolidine-2-carboxamide], the half-life at 1 µM in data set [1] (setting [7]), in data set [1] (setting [4]) and in data set [1] (setting [5]) was more than 240 min each time. For the same molecule, in data set [2] (setting [8]), the “HLH percentage of substrate left at the final time point of analysis” value (“HLH percentage of substrate left” for short) turned out to be 70.0%.
For the molecule `Cc1ncsc1-c1ccc([C@H](C)NC(=O)[C@@H]2C[C@@H](O)CN2C(=O)[C@@H](NC(=O)CCCCn2cc(CN3CCN(C(=O)c4cc(Cc5n[nH]c(=O)c6ccccc56)ccc4F)CC3)nn2)C(C)(C)C)cc1` [Compound 24, (2S,4R)-1-((S)-2-(5-(4-((4-(2-Fluoro-5-((4-oxo-3,4-dihydrophthalazin-1-yl)methyl)benzoyl)piperazin-1-yl)methyl)-1H-1,2,3-triazol-1-yl)pentanamido)-3,3-dimethylbutanoyl)-4-hydroxy-N-((S)-1-(4-(4-methylthiazol-5-yl)phenyl)ethyl)pyrrolidine-2-carboxamide], the half-life at 1 µM in data set [1] (setting [7]), in data set [1] (setting [4]) and in data set [1] (setting [5]) was more than 240 min each time. For the same molecule, the substrate left result in data set [2] is “about 84%”. Moreover, the “HLH percentage of substrate left” value in data set [2] (setting [8]) is recorded as 84.3%.
With `Cc1ncsc1-c1ccc([C@H](C)NC(=O)[C@@H]2C[C@@H](O)CN2C(=O)[C@@H](NC(=O)CCCCn2cc(CCCC(=O)N3CCN(C(=O)c4cc(Cc5n[nH]c(=O)c6ccccc56)ccc4F)CC3)nn2)C(C)(C)C)cc1` [Compound 25, (2S,4R)-1-((S)-2-(5-(4-(4-(4-(2-Fluoro-5-((4-oxo-3,4-dihydrophthalazin-1-yl)methyl)benzoyl)piperazin-1-yl)-4-oxobutyl)-1H-1,2,3-triazol-1-yl)pentanamido)-3,3-dimethylbutanoyl)-4-hydroxy-N-((S)-1-(4-(4-methylthiazol-5-yl)phenyl)ethyl)pyrrolidine-2-carboxamide], the half-life at 1 µM in data set [1] (setting [7]), in data set [1] (setting [4]) and in data set [1] (setting [5]) was more than 240 min in each case. For the same molecule, the substrate left result in data set [2] is “about 84%”. Moreover, the “HLH percentage of substrate left” value in data set [2] (setting [8]) amounted to 84.7%.
For `O=C(COc1cccc2c1C(=O)N(C1CCC(=O)NC1=O)C2=O)NCCCCCCCCNC(=O)COc1c(-c2csc(N3CCOCC3)n2)ccc(F)c1F` (centres unmarked) [Compound 26, 2-(2,3-Difluoro-6-(2-morpholinothiazol-4-yl)phenoxy)-N-(8-(2-((2-(2,6-dioxopiperidin-3-yl)-1,3-dioxoisoindolin-4-yl)oxy)acetamido)octyl)acetamide], the half-life at 1 µM in data set [1] (setting [7]), in data set [1] (setting [9]), in data set [1] (setting [4]) and in data set [1] (setting [5]) was 8.4 min throughout. For the same molecule, in data set [2] (setting [10]), the “Reaction (soft spots)” value is “a. Amide hydrolysis b. N-dealkylation c. O-dealkylation”.
As to `O=C(COc1cccc2c1C(=O)N(C1CCC(=O)NC1=O)C2=O)NCCOCCOCCNC(=O)COc1c(-c2csc(N3CCOCC3)n2)ccc(F)c1F` (centres unmarked) [Compound 27, 2-(2,3-Difluoro-6-(2-morpholinothiazol-4-yl)phenoxy)-N-(2-(2-(2-(2-((2-(2,6-dioxopiperidin-3-yl)-1,3-dioxoisoindolin-4-yl)oxy)acetamido)ethoxy)ethoxy)ethyl)acetamide], the half-life at 1 µM in data set [1] (setting [9]), in data set [1] (setting [4]) and in data set [1] (setting [5]) was 39.4 min throughout. In data set [2] (setting [10]), the “Reaction (soft spots)” value is “a. Amide hydrolysis b. O-dealkylation (x3) c. Aliphatic-hydroxylation”.
With `O=C(COc1cccc2c1C(=O)N(C1CCC(=O)NC1=O)C2=O)NCCOCCOCCOCCNC(=O)COc1c(-c2csc(N3CCOCC3)n2)ccc(F)c1F` (centres unmarked) [Compound 28, 2-(2,3-Difluoro-6-(2-morpholinothiazol-4-yl)phenoxy)-N-(1-((2-(2,6-dioxopiperidin-3-yl)-1,3-dioxoisoindolin-4-yl)oxy)-2-oxo-6,9,12-trioxa-3-azatetradecan-14-yl)acetamide], the half-life at 1 µM in data set [1] (setting [4]) and in data set [1] (setting [5]) was 66.4 min in each case.
Take `O=C(COc1c(-c2csc(N3CCOCC3)n2)ccc(F)c1F)NCCCCCCCCNc1cccc2c1C(=O)N(C1CCC(=O)NC1=O)C2=O` (centres unmarked) [Compound 30, 2-(2,3-Difluoro-6-(2-morpholinothiazol-4-yl)phenoxy)-N-(8-((2-(2,6-dioxopiperidin-3-yl)-1,3-dioxoisoindolin-4-yl)amino)octyl)acetamide]: the half-life at 1 µM in data set [1] (setting [9]), in data set [1] (setting [4]) and in data set [1] (setting [5]) was 47.6 min throughout. The “Reaction (soft spots)” value in data set [2] (setting [10]) is on record as “a. Amide hydrolysis b. N-dealkylation c. O-dealkylation d. Aliphatic-hydroxylation”.
Consider `O=C1CCC(N2C(=O)c3cccc(NCCOCCOCCOc4c(-c5csc(N6CCOCC6)n5)ccc(F)c4F)c3C2=O)C(=O)N1` (centres unmarked) [Compound 32, 4-((2-(2-(2-(2,3-Difluoro-6-(2-morpholinothiazol-4-yl)phenoxy)ethoxy)ethoxy)ethyl)amino)-2-(2,6-dioxopiperidin-3-yl)isoindoline-1,3-dione], for which the half-life at 1 µM in data set [1] (setting [4]) and in data set [1] (setting [5]) was 45.3 min throughout.
Turning to `Cc1ncsc1-c1ccc([C@H](C)NC(=O)[C@@H]2C[C@@H](O)CN2C(=O)[C@@H](NC(=O)COCCCNC(=O)COc2c(-c3csc(N4CCOCC4)n3)ccc(F)c2F)C(C)(C)C)cc1` [Compound 36], the half-life at 1 µM in data set [1] (setting [4]) and in data set [1] (setting [5]) was 25.2 min each time.
Take `Cc1ncsc1-c1ccc([C@H](C)NC(=O)[C@@H]2C[C@@H](O)CN2C(=O)[C@@H](NC(=O)COCCOCCNC(=O)COc2c(-c3csc(N4CCOCC4)n3)ccc(F)c2F)C(C)(C)C)cc1` [Compound 37]: the half-life at 1 µM in data set [1] (setting [3]), in data set [1] (setting [4]) and in data set [1] (setting [5]) was 37.6 min in each case. Further, in data set [2] (setting [6]), the “Reaction (soft spots)” value is recorded as “a. O-dealkylation (x5) b. Amide Hydrolysis (x2) c. Glucuronidation d. Dehydrogenation”.
For the molecule `Cc1ncsc1-c1ccc([C@H](C)NC(=O)[C@@H]2C[C@@H](O)CN2C(=O)[C@@H](NC(=O)CCCCCCCOc2c(-c3csc(N4CCOCC4)n3)ccc(F)c2F)C(C)(C)C)cc1` [Compound 38], the half-life at 1 µM in data set [1] (setting [4]) and in data set [1] (setting [5]) was 67.6 min throughout.
`Cc1ncsc1-c1ccc([C@H](C)NC(=O)[C@@H]2C[C@@H](O)CN2C(=O)[C@@H](NC(=O)CCCCn2cc(COc3c(-c4csc(N5CCOCC5)n4)ccc(F)c3F)nn2)C(C)(C)C)cc1` [Compound 39]: the half-life at 1 µM in data set [1] (setting [7]), in data set [1] (setting [4]) and in data set [1] (setting [5]) was 40.1 min each time.
`Nc1cccc2c1C(=O)N(C1CCC(=O)NC1=O)C2=O` (centres unmarked) [Compound 41, pomalidomide, reference compound]: the half-life at 1 µM in data set [1] (setting [3]), in data set [1] (setting [11]) and in data set [1] (setting [5]) was 140 min throughout. Moreover, the “Reaction (soft spots)” value in data set [2] (setting [6]) is listed as “a. Amide Hydrolysis (x4)”.
For the molecule `Cc1ncsc1-c1ccc([C@H](C)NC(=O)[C@@H]2C[C@@H](O)CN2C(=O)[C@@H](N)C(C)(C)C)cc1` [Compound 42, reference compound], the half-life at 1 µM in data set [1] (setting [3]), in data set [1] (setting [11]) and in data set [1] (setting [5]) was 92 min in each case. In addition, the “Reaction (soft spots)” value in data set [2] (setting [6]) is listed as “a. N-dealkylation b. Aromatic hydroxylation c. Aliphatic-hydroxylation d. Aliphatic-carbonylation”.
Regarding `Cc1sc2c(c1C)C(c1ccc(Cl)cc1)=N[C@@H](CC(=O)O)c1nnc(C)n1-2` [Compound 43, (+)-JQ1, reference compound], the half-life at 1 µM in data set [1] (hepatocytes, HLH t1/2 (min)) was more than 240 min; in data set [1] (hepatocytes, t1/2 (min)), more than 240 min. In addition, in data set [2], the “Reaction (soft spots)” value is on record as “a. Aliphatic-hydroxylation”. Besides, the “HLH percentage of substrate left” value in data set [2] (human, 240 min, 1 µM) came to 100.0%.
As to `O=C(O)c1ccc2c(c1)nc(Nc1cccc(Cl)c1)c1ccncc12` [Compound 44, CX4945, reference compound], the half-life at 1 µM in data set [1] (setting [11]) and in data set [1] (setting [5]) was 99.7 min throughout.
As for `Cl.O=C(c1cc(Cc2n[nH]c(=O)c3ccccc23)ccc1F)N1CCNCC1` [Compound 45, reference compound], the half-life at 1 µM in data set [1] (setting [11]) and in data set [1] (setting [5]) was more than 240 min in each case. Besides, the “HLH percentage of substrate left” value in data set [2] (setting [8]) came to 77.7%.
`Oc1c(-c2csc(N3CCOCC3)n2)ccc(F)c1F` [Compound 46, reference compound]: the half-life at 1 µM is less than 20 min in data set [1] (setting [7]), 18.3 min in data set [1] (setting [3]), 18.3 min in data set [1] (setting [11]) and 18.3 min in data set [1] (setting [5]). The “Reaction (soft spots)” value in data set [2] (setting [6]) is reported as “a. O-dealkylation b.Glucuronidation c. Aliphatic hydroxylation”.
